Literature values in patent publication US20120121700A1, “PHARMACEUTICAL FORMULATIONS COMPRISING VALGANCICLOVIR” (priority 2010, published 2012).

Conditions: oral administration; background statement taken from U.S. Pat. No. 6,083,953

SMILES	bioavailability when administered orally
CC(C)[C@H](N)C(=O)OCC(CO)OCn1cnc2c(=O)[nH]c(N)nc21.Cl (stereo partly drawn) [Valganciclovir hydrochloride, L-valine, 2-[(2-amino-1,6-dihydro-6-oxo-9H-purin-9-yl)methoxy]-3-hydroxypropyl ester, monohydrochloride]	better bioavailability than ganciclovir given orally
Nc1nc(O)c2ncn(COC(CO)CO)c2n1 [gancilcovir, ganciclovir]	poor
